Among the data in ChEMBL document CHEMBL5465560, “Selectivity Literature for EUbOPEN Chemogenomic Library” (2024) are % of control and % of inhibition values, retold here.

Experiment [1] has as its target Serine/threonine-protein kinase PLK3 (Homo sapiens, UniProt Q9H4B4). To be noted: at 10 µM.
Experiment [2] has as its system T1, Receptor-type tyrosine-protein kinase FLT3 (Homo sapiens), P36888 [D835Y].
T1 sequence (whole entry): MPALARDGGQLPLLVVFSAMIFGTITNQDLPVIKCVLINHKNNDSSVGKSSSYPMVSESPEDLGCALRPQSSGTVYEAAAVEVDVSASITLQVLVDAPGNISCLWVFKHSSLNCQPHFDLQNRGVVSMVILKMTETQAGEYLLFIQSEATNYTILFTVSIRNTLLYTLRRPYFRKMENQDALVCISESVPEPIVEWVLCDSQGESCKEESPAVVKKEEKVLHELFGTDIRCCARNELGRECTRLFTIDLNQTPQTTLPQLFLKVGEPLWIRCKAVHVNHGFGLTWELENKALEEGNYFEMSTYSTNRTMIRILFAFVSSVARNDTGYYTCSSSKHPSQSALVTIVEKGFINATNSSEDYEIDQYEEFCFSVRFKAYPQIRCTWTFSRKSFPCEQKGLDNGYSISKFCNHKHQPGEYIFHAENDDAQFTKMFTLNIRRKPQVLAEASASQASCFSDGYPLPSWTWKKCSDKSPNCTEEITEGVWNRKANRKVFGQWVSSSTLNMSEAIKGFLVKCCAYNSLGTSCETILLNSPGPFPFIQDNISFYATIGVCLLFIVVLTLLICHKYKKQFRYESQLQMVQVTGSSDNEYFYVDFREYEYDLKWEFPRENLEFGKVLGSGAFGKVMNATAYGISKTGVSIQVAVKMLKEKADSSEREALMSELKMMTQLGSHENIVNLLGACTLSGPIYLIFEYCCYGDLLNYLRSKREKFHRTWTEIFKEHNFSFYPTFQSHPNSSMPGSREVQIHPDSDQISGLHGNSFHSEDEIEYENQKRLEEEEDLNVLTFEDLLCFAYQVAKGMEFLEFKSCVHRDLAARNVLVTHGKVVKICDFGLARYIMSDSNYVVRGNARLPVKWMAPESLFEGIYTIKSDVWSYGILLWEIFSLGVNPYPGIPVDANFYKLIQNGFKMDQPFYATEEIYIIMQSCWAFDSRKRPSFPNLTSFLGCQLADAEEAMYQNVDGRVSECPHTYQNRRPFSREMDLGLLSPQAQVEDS
Briefly: (§1) Selectivity interaction (KinomeScan (DiscoverX)) EUB0000092b FLT3. To be noted: at 10 µM.

The subject of experiment [3] is Receptor-type tyrosine-protein kinase FLT3 (Homo sapiens), P36888 [UNDEFINED MUTATION]. The description is as §1. To be noted: at 10 µM.
Experiment [4] has as its target Dual specificity mitogen-activated protein kinase kinase 2 (Homo sapiens) (UniProt P36507). Briefly: Selectivity interaction (KinomeScan (DiscoverX)) EUB0001550a MAP2K2. To be noted: at 1 µM.
The target of experiment [5] is T2, Ephrin type-B receptor 1 (Homo sapiens) (UniProt P54762).
T2 sequence (whole entry): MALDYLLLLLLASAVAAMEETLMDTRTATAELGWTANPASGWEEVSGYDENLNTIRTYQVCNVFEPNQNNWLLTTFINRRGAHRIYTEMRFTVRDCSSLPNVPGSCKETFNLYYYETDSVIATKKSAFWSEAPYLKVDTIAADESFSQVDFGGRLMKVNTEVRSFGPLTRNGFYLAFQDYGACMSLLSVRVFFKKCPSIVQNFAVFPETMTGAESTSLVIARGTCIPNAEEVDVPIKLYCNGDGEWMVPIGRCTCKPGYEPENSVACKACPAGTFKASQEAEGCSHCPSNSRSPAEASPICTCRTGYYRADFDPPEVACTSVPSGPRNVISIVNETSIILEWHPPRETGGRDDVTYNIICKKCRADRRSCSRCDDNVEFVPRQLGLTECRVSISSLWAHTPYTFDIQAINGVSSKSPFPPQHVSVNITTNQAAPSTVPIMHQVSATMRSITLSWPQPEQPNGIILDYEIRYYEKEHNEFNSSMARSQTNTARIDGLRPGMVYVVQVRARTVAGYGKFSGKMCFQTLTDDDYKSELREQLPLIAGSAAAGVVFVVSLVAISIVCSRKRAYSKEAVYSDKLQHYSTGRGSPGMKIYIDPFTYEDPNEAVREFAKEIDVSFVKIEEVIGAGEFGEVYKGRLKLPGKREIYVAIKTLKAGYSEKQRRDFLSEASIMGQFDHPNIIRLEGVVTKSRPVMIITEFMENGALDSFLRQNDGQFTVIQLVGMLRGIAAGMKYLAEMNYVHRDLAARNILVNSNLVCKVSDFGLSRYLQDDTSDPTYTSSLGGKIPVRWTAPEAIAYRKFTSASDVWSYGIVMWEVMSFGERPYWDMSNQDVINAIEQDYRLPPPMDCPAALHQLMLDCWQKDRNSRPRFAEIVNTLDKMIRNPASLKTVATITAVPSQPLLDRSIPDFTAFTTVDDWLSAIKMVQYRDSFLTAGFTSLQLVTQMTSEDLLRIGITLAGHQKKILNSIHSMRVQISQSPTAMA
Briefly: Selectivity interaction (KinomeScan (DiscoverX)) EUB0000666a EPHB1. To be noted: at 10 µM.

The target in experiment [6] is T3, Casein kinase I isoform alpha-like (Homo sapiens) (UniProt Q8N752).
T3 sequence (whole entry): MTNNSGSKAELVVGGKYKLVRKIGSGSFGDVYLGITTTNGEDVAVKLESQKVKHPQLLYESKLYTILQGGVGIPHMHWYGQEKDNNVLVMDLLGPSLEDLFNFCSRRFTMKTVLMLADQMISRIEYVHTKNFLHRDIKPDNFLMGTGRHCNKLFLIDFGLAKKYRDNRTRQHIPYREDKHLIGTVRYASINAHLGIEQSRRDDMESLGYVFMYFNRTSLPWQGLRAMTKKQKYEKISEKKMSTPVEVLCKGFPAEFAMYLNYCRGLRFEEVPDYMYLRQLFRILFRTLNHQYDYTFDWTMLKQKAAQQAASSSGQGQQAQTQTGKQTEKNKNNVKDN
Briefly: Selectivity interaction (KinomeScan (DiscoverX)) EUB0000607a CSNK1A1L. To be noted: at 10 µM.

Experiment [7] has as its target Mitogen-activated protein kinase 6 (Homo sapiens) (UniProt Q16659). Briefly: Selectivity interaction (ActivX KiNativ screen (kinase selectivity in THP-1 cell lysates)) EUB0000639a MAPK6. To be noted: lysate. Type of experiment: subcellular.
Experiment [8] deals with Mitogen-activated protein kinase 4 (Homo sapiens) (UniProt P31152). Briefly: Selectivity interaction (KinomeScan (DiscoverX)) EUB0001619a MAPK4. To be noted: at 1 µM.
Chain of Mitogen-activated protein kinase 4 (Homo sapiens) (P31152 whole entry): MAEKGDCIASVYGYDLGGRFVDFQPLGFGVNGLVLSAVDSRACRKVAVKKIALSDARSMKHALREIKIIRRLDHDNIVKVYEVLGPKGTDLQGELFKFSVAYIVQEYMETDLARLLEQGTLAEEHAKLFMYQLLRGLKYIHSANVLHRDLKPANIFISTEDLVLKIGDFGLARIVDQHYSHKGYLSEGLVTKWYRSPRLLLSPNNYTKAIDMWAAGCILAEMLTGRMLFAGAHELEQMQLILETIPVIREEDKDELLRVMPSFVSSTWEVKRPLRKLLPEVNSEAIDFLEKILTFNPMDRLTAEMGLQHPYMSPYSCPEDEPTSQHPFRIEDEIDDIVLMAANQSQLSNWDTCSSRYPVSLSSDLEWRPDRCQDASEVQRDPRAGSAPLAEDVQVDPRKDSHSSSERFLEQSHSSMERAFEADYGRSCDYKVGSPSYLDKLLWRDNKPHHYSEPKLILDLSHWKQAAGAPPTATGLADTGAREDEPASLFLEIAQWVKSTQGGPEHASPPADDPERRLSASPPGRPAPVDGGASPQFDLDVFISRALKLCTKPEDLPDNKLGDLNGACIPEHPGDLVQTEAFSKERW
For experiment [9], the target named is Serine/threonine-protein kinase pim-3 (Homo sapiens) (UniProt Q86V86). Briefly: Selectivity interaction (Kinase panel (literature)) EUB0001199aCl PIM3. To be noted: at 1 µM.

Chain of Mitogen-activated protein kinase 6 (Homo sapiens) (Q16659 whole entry): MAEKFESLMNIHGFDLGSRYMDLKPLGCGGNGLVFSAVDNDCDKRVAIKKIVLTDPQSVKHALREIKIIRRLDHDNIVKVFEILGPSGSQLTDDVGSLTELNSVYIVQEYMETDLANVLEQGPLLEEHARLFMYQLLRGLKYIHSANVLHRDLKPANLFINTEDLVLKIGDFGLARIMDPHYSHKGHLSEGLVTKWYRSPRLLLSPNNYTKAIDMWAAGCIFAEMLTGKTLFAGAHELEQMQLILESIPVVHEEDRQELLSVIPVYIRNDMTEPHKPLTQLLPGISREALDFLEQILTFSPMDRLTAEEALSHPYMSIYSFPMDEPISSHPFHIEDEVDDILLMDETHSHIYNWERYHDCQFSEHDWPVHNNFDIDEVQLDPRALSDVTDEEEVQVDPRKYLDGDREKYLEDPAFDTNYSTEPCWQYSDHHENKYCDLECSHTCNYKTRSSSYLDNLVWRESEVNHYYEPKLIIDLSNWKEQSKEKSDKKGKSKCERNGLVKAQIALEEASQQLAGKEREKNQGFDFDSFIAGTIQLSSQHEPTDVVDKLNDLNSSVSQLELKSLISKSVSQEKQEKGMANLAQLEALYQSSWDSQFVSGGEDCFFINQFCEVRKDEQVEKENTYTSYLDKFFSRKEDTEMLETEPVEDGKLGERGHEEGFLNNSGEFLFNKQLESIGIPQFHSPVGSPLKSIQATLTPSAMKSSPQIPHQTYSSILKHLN
Chain of Dual specificity mitogen-activated protein kinase kinase 2 (Homo sapiens) (P36507 whole entry): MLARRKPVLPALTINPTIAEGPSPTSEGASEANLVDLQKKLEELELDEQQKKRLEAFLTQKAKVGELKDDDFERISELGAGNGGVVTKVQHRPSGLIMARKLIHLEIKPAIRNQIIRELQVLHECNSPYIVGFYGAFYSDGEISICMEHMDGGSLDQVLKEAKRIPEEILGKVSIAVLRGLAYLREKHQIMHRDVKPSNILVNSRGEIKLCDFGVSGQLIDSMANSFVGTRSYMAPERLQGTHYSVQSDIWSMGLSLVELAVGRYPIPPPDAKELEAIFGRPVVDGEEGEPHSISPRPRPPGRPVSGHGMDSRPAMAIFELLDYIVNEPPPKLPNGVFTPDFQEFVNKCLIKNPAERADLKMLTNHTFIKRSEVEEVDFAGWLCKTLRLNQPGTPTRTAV
Chain of Serine/threonine-protein kinase PLK3 (Q9H4B4 whole entry, looked up): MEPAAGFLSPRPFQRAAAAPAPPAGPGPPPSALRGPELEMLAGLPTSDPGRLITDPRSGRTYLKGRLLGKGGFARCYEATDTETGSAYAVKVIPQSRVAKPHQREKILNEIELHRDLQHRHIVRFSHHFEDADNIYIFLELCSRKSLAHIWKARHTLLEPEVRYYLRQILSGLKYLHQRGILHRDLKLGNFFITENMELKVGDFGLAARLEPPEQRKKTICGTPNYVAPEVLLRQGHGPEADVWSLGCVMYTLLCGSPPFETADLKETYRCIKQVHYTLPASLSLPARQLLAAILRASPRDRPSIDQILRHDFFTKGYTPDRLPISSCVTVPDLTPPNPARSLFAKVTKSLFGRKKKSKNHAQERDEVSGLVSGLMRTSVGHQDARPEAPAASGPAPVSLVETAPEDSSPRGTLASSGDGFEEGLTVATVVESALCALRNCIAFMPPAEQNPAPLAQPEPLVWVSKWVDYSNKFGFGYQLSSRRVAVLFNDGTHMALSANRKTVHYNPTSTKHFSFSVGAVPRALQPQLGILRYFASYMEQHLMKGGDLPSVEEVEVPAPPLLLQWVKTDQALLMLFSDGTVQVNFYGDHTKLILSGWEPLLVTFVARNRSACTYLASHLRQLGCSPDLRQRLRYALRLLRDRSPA

For `Cc1cc([C@@H](C)Nc2ccccc2C(=O)O)c2nc(N3CCOCC3)cc(=O)n2c1` [AZD-6482], in [1], the % of control was 89%.
Take `CCC(=O)N1CCN(c2ccc(-n3c(=O)ccc4cnc5ccc(-c6cnc7ccccc7c6)cc5c43)cc2C(F)(F)F)CC1`: the results for the % of control in experiment [2] and in [3] were 16% and 29%, respectively.
Take `CN(C)CC#Cc1ccc2[nH]c3c(c2c1)-c1nc(N)ncc1CCC3`: the % of control in [4] was found to be 9.6%.
`O=C(NOC[C@H](O)CO)c1ccc(F)c(F)c1Nc1ccc(I)cc1F`: the % of control in experiment [5] stood at 100%.
As to `CNC(=O)Nc1ccc(-c2nc(N3CC4CCC(C3)O4)c3cnn(C4CCC5(CC4)OCCO5)c3n2)cc1`, in experiment [6], the % of control came to 100%.
`CC[C@@H]1[C@H](F)C(=O)N[C@@H]1COc1nccc2cc(C(N)=O)c(OC)cc12` [ZIMLOVISERTIB]: the % of inhibition in experiment [7] (at 0.01 µM) is -20%; in experiment [7] (at 0.04 µM), -5.5%; in experiment [7] (at 0.2 µM), -11.8%; in experiment [7] (at 1 µM) it was -1.3%; in experiment [7] (at 5 µM), -1%.
In experiment [8], `N#Cc1cccc(-c2c[nH]c3ncnc(N4CCOCC4)c23)c1` yielded a % of control of 95%.
For the compound `CN1Cc2nccc(-c3cn(C)nc3-c3ccc(F)cc3)c2C1=O`, the % of inhibition in [9] stood at 1%.
